In patent publication US12096770B2, “Method for preparing an insect repellent agent” (CENTRE NATIONAL DE LA RECHERCHE SCIENTIFIQUE, priority 2019, dated 2024):
≈ marks a conversion by molar mass, not a printed value. Where “and” joins values, the source holds several entries; their conditions need not be identical. Equal values may be shown once.

Tests used:
[1] = test system: Aedes albopictus; assay: Behavioural (blood-feeding) repellency test on tiger mosquitoes with feeders covered by pig intestinal skin; format: in vivo; details: for effect of added compound on repellent activity of PMD: added to commercial cis/trans PMD 75/25 at 200 mg/m^2 in EtOH; for % Repellency: 1 hour, relative to EtOH negative control, mean ± standard deviation of 16 replicates
Protocol: Testing was performed as to the activity of the compositions obtained by the method according to the invention on the behaviour of the tiger mosquito, Aedes albopictus.
The behavioural tests were carried out at the Montpellier Vectopôle, which is a research centre that collaborates with the WHO for the evaluation of insecticides in public health.
The tests were carried out on mosquitoes aged 5 to 9 days old after their evolution from pupae to adult.
In preparation for the experiment, the mosquitoes were […] on the day prior thereto, in order to promote their appetite for the test to occur the subsequent day.
Each cup contains a damp cotton. The female mosquitoes were removed from the cage making use of a tube that enables aspiration thereof. They were then introduced into each experiment cup (10 mosquitoes per cup).
The tests were carried out on plexiglass racks serving as supports for glass bells known as feeders. The latter are connected to each other by plastic pipes wherein water circulates at 37° C.
Pig intestinal skin was used to mimic human skin in the experiment. The pieces of intestinal skin are positioned and stretched over the feeders.
The repellent is diluted in ethyl alcohol (aka ethanol or EtOH) and is deposited on the skin using a micropipette and then spread over the entire surface. […] If the composition tested is a mixture of at least two compounds, one of which is PMD, the said composition is diluted in ethanol until 0.02036 mg/μL of PMD is obtained.
The feeders are turned over, then 300 μL of sheep blood are placed in each feeder. The cups are inserted under each feeder.
Polystyrene plates are inserted between the lines of repellent so as to avoid possible interactions of odours. The duration of the experiment is one hour. The cups are then placed in a freezer at −20° C. for a period of 40 minutes. After freezing, the contents of one cup are placed between two sheets of paper, with the entirety thereof then being crushed with a plexiglass plate. The counting of the blood-fed (engorged) mosquitoes is done based on the number of red dots on the sheet of paper. The results are expressed as a percentage of repellency (100% −X% of blood-feeding). The percentage of blood-feeding is defined in relation to the EtOH negative control. DEET and commercial cis/trans PMD 75/25 at 200 mg/m^2 were used as positive controls.
The results obtained were statistically analysed using R software (R Development Core Team. R: A language and environment for statistical computing. R Foundation for Statistical Computing, Vienna, Austria. ISBN 3-900051-07-0, 2013) and represent the mean of 16 replicates. The percentage repellency values are presented as a mean±standard deviation. The R software also makes it possible to compare two percentage repellency values by means of calculating the quantity p. This quantity p is a probability.

[2] = test system: olfactory receptors of Aedes albopictus; assay: Orientation tests in ElectroAntennogGraphy coupled with Gas Chromatography
Protocol: Orientation tests in ElectroAntennogGraphy coupled with Gas Chromatography were carried out.

[3] = test system: acetylcholinesterase; details: cited from earlier work

Row | Compound | effect of added compound on repellent activity of PMD [1] | % Repellency ([1]; 200 mg/m^2 (of PMD) in EtOH) | further results
1 | C=C1CC/C=C(\C)CC[C@@H]2[C@@H]1CC2(C)C [caryophyllene, (1R,4E,9S)-4,11,11-trimethyl-8-methylidenebicyclo[7.2.0]undec-4-ene] | enhances the repellent activity of PMD |  | recognition in ElectroAntennogGraphy [2]: recognised at very low doses
2 | CC1CCC(C(C)(C)O)C(O)C1 (stereo not drawn) [Commercial cis PMD, p-menthane-3,8-diol] |  | 64 ± 15% | 
3 | CC1CCC(C(C)(C)O)C(O)C1 (racemic) [Commercial cis/trans PMD 75/25, p-menthane-3,8-diol] |  | 79 ± 4% and 59 ± 14% and 68 ± 2% and 55 ± 10% and 60 ± 5% and 65 ± 8% and 69 ± 13% and 63 ± 9% and 59 ± 9% and 56 ± 13% | % Repellency ([1]; 200 mg/m^2 (of PMD) in EtOH, listed as Commercial cis/trans PMD 75/25 derived from RS citronellal (racemic mixture)): 34 ± 1%; ED 50 expressed as concentration ([1]; concentration in EtOH tantamount to 200 mg/m^2): 20.36 mg/mL (≈ 118 mM); ED 50 (median effective dose) ([1]; dose deposited on skin): 200 mg/m^2
4 | CC(C)=CCCC(C)CC1OC2CC(C)CCC2C(C)(C)O1 (stereo not drawn) [acetals] | enhance the repellent activity of PMD |  | 
5 | CCN(CC)C(=O)c1cccc(C)c1 [DEET, N,N diethyl-meta-toluamide] |  |  | % Repellency ([1]; 110 mg/m^2 in EtOH): 63 ± 5% and 49 ± 4% and 68 ± 10% and 43 ± 1% and 41 ± 6% and 63 ± 8% and 73 ± 7% and 28 ± 8%; acetylcholinesterase inhibition [3]: inhibits
6 | CC1CCC(C(C)(C)O)C(O)C1 (stereo not drawn) [Commercial trans PMD, p-menthane-3,8-diol] |  | 57 ± 6% | 
7 | CC1CCC(C(C)(C)O)C(O)C1 (mixture of isomers) [Commercial cis/trans PMD 75/25 derived from R citronellal] [p-menthane-3,8-diol] |  | 24 ± 2% | 
8 | C=C(C)C1CCC(C)CC1O (stereo not drawn) [isopulegol, 5-methyl-2-prop-1-en-2-ylcyclohexan-1-ol] | may enhance the repellent activity of PMD |  | 
9 | CC1CCC(C(C)(C)O)C(O)C1 (mixture of isomers) [Commercial cis/trans PMD 75/25 derived from S citronellal] [p-menthane-3,8-diol] |  | 41 ± 3% | 
10 | CC1CCC(C(C)(C)O)C(O)C1 (stereo not drawn) [PMD, (2-hydroxypropan-2-yl)-5-methylcyclohexan-1-ol] |  |  | recognition in ElectroAntennogGraphy [2]: recognised at very low doses
11 | CC1CCC(C(C)(C)O)C(O)C1 (mixture of isomers) [Commercial cis/trans PMD 60/40, p-menthane-3,8-diol] |  | 68 ± 15% | 
12 | CC(C)=CCCC(C)CCO (stereo not drawn) [citronellol, 3,7-dimethyloct-6-en-1-ol] |  |  | recognition in ElectroAntennogGraphy [2]: recognised at very low doses
13 | CC(C)=CCCC(C)CC=O (stereo not drawn) [citronellal, 3,7-dimethyloct-6-en-1-al] | does not boost PMD activity |  | 
